The values that follow come from ChEMBL document CHEMBL1122093, “Preparation of the alpha and beta anomers of 9-(3,5-dideoxy-D-glycero-pent-4-enofuranosyl)adenine and their activity with leukemia L1210 cells in vitro” (1982).

The subject of test [1] is L1210. The experiment in a line: In vitro for the inhibitory activity against L1210 leukemia cells at a concentration 3.2x10 E -4 M. Type of test: functional. The settings on record: Mus musculus.
In test [2] the test system is L1210. The experiment in a line: In vitro for the inhibitory activity against L1210 leukemia cells at a concentration 3.4x10 E -4 M. The settings on record: Mus musculus. The class given is functional.

A word on the inhibition: it is the change of the read-out against control, counted positive when it falls.

Each structure is given as a SMILES string.

`C=C1C[C@@H](O)[C@H](n2cnc3c(N)ncnc32)O1` returned an inhibition at 320 µM in the test with L1210 [1] of 50%. `C=C1C[C@@H](O)[C@@H](n2cnc3c(N)ncnc32)O1` registered an inhibition at 340 µM in the test on L1210 [2] of 50%.
